From ChEMBL document CHEMBL3817761, “Chenopodium album metabolites act as dual topoisomerase inhibitors and induce apoptosis in the MCF7 cell line” (Medchemcomm, 2016) come the findings set out here.

Assay [1] has as its system MCF7. Briefly: Induction of apoptosis in human MCF7 cells assessed as late apoptotic cells at 8.27 uM after 48 hrs by Annexin-V-FITC/propidium iodide staining based flow cytometry relative to control. The format is functional. (In flow cytometry, cells or beads pass a laser one at a time.)
Assay [2] has as its system MCF7. As to the kind of experiment: Induction of ROS accumulation in human MCF7 cells at 8.27 uM after 12 hrs by CM-H2-DCFDA probe based flow cytometry (reference value: 5.1 %). The format is functional.
Assay [3] deals with MCF7. Briefly: Induction of ROS accumulation in human MCF7 cells at 8.27 uM after 24 hrs by CM-H2-DCFDA probe based flow cytometry (reference value: 12.6 %). Format: functional.
In assay [4] the test system is MCF7. As to the kind of experiment: Cell cycle arrest in human MCF7 cells assessed as accumulation at G2/M phase at 8.27 uM after 24 hrs by propidium iodide staining based flow cytometry (reference value: 25 %). Format: functional.
Assay [5] relates to MCF7. As to the kind of experiment: Induction of mitochondrial membrane depolarization in human MCF7 cells at 8.27 uM after 24 hrs by JC-1 staining based FACS assay (reference value: 9.9 %). Format: functional.
The subject of assay [6] is MCF7. As to the kind of experiment: Induction of apoptosis in human MCF7 cells assessed as viable cells at 8.27 uM after 24 hrs by Annexin-V-FITC/propidium iodide staining based flow cytometry (reference value: 95.9 %). The following applies: MCF7, 24 h, read-out: Activity. The format is functional.
Assay [7] concerns MCF7. As to the kind of experiment: Cell cycle arrest in human MCF7 cells assessed as accumulation at S phase at 8.27 uM after 24 hrs by propidium iodide staining based flow cytometry (reference value: 24.5 %). The format is functional.
In assay [8] the test system is MCF7. Briefly: Induction of apoptosis in human MCF7 cells assessed as late apoptotic cells at 8.27 uM after 24 hrs by Annexin-V-FITC/propidium iodide staining based flow cytometry (reference value: 0.1 %). Format: functional.
The test system of assay [9] is MCF7. As to the kind of experiment: Induction of mitochondrial membrane depolarization in human MCF7 cells assessed as ratio of red to green fluorescence at 8.27 uM after 48 hrs by JC-1 staining based FACS assay (reference value: 9.1). Format: functional.
Assay [10] has as its system MCF7. Briefly: Induction of apoptosis in human MCF7 cells assessed as cell detachment at 8.27 uM after 24 hrs by inverted phase contrast microscopy. The format is functional, cell-based.
Assay [11] relates to MCF7. As to the kind of experiment: Induction of apoptosis in human MCF7 cells assessed as necrotic cells at 8.27 uM after 24 hrs by Annexin-V-FITC/propidium iodide staining based flow cytometry (reference value: 1.7 %). Format: functional.
The subject of assay [12] is MCF7. Briefly: Induction of apoptosis in human MCF7 cells assessed as caspase 7 cleavage at 8.27 uM after 48 hrs by Western blot analysis. Format: functional, cell-based. (A western blot detects proteins with antibodies after separation by electrophoresis.)
The test system of assay [13] is MCF7. As to the kind of experiment: Cell cycle arrest in human MCF7 cells assessed as accumulation at G0/G1 phase at 8.27 uM after 48 hrs by propidium iodide staining based flow cytometry (reference value: 59.7 %). Format: functional.
Assay [14] relates to MCF7. Briefly: Induction of apoptosis in human MCF7 cells assessed as caspase 9 cleavage at 8.27 uM after 48 hrs by Western blot analysis. The format is functional, cell-based.
Assay [15] deals with MCF7. Briefly: Cell cycle arrest in human MCF7 cells assessed as accumulation at G0/G1 phase at 8.27 uM after 24 hrs by propidium iodide staining based flow cytometry (reference value: 50.3 %). Format: functional.
Assay [16] concerns MCF7. Briefly: Cell cycle arrest in human MCF7 cells assessed as accumulation at S phase at 8.27 uM after 48 hrs by propidium iodide staining based flow cytometry (reference value: 20.6 %). The format is functional.
Assay [17] concerns MCF7. As to the kind of experiment: Induction of apoptosis in human MCF7 cells assessed as necrotic cells at 8.27 uM after 48 hrs by Annexin-V-FITC/propidium iodide staining based flow cytometry (reference value: 0.4 %). Format: functional.
The test system of assay [18] is MCF7. Briefly: Induction of ROS accumulation in human MCF7 cells at 11.33 uM after 24 hrs by CM-H2-DCFDA probe based flow cytometry (reference value: 12.6 %). The format is functional.
Assay [19] has as its system MCF7. Briefly: Induction of apoptosis in human MCF7 cells assessed as early apoptotic cells at 11.33 uM after 24 hrs by Annexin-V-FITC/propidium iodide staining based flow cytometry (reference value: 2.3 %). Format: functional.
Assay [20] relates to MCF7. As to the kind of experiment: Induction of apoptosis in human MCF7 cells assessed as late apoptotic cells at 11.33 uM after 24 hrs by Annexin-V-FITC/propidium iodide staining based flow cytometry (reference value: 0.1 %). The format is functional.
In assay [21] the test system is MCF7. As to the kind of experiment: Induction of mitochondrial membrane depolarization in human MCF7 cells at 11.33 uM after 48 hrs by JC-1 staining based FACS assay (reference value: 9.9 %). The format is functional.
For assay [22], the system named is MCF7. As to the kind of experiment: Induction of apoptosis in human MCF7 cells assessed as caspase 7 cleavage at 11.33 uM after 48 hrs by Western blot analysis. The format is functional, cell-based.
Assay [23] relates to MCF7. As to the kind of experiment: Induction of apoptosis in human MCF7 cells assessed as necrotic cells at 11.33 uM after 48 hrs by Annexin-V-FITC/propidium iodide staining based flow cytometry (reference value: 0.4 %). Format: functional.
The subject of assay [24] is MCF7. Briefly: Induction of apoptosis in human MCF7 cells assessed as PARP-1 cleavage at 11.33 uM after 48 hrs by Western blot analysis. The format is functional, cell-based.
Assay [25] deals with MCF7. Briefly: Cell cycle arrest in human MCF7 cells assessed as accumulation at S phase at 11.33 uM after 48 hrs by propidium iodide staining based flow cytometry (reference value: 20.6 %). Format: functional.
Assay [26] has as its system MCF7. As to the kind of experiment: Induction of apoptosis in human MCF7 cells assessed as viable cells at 11.33 uM after 24 hrs by Annexin-V-FITC/propidium iodide staining based flow cytometry (reference value: 95.9 %). Format: functional. The following applies: MCF7, 24 h, read-out: Activity.
Assay [27] concerns MCF7. As to the kind of experiment: Induction of ROS accumulation in human MCF7 cells at 11.33 uM after 12 hrs by CM-H2-DCFDA probe based flow cytometry (reference value: 5.1 %). Format: functional.
Assay [28] relates to MCF7. Briefly: Induction of mitochondrial membrane depolarization in human MCF7 cells at 11.33 uM after 24 hrs by JC-1 staining based FACS assay (reference value: 9.9 %). Format: functional.
In assay [29] the test system is MCF7. Briefly: Induction of apoptosis in human MCF7 cells assessed as rounded cells at 11.33 uM after 24 hrs by inverted phase contrast microscopy. Format: functional, cell-based.
In assay [30] the test system is MCF7. As to the kind of experiment: Induction of mitochondrial membrane depolarization in human MCF7 cells assessed as ratio of red to green fluorescence at 11.33 uM after 24 hrs by JC-1 staining based FACS assay (reference value: 9.1). The format is functional.
Assay [31] deals with MCF7. Briefly: Cell cycle arrest in human MCF7 cells assessed as accumulation at G2/M phase at 11.33 uM after 24 hrs by propidium iodide staining based flow cytometry (reference value: 25 %). Format: functional.
Assay [32] concerns MCF7. Briefly: Induction of apoptosis in human MCF7 cells assessed as cell detachment at 11.33 uM after 24 hrs by inverted phase contrast microscopy. The format is functional, cell-based.
The subject of assay [33] is MCF7. As to the kind of experiment: Cell cycle arrest in human MCF7 cells assessed as accumulation at S phase at 11.33 uM after 24 hrs by propidium iodide staining based flow cytometry (reference value: 24.5 %). The format is functional.
The test system of assay [34] is MCF7. Briefly: Cell cycle arrest in human MCF7 cells assessed as accumulation at G0/G1 phase at 11.33 uM after 24 hrs by propidium iodide staining based flow cytometry (reference value: 50.3 %). Format: functional.
Assay [35] concerns MCF7. Briefly: Induction of mitochondrial membrane depolarization in human MCF7 cells assessed as ratio of red to green fluorescence at 11.33 uM after 48 hrs by JC-1 staining based FACS assay (reference value: 9.1). The format is functional.
Assay [36] has as its system MCF7. As to the kind of experiment: Induction of apoptosis in human MCF7 cells assessed as viable cells at 11.33 uM after 48 hrs by Annexin-V-FITC/propidium iodide staining based flow cytometry (reference value: 99.2 %). Format: functional. To be noted: MCF7, 48 h, read-out: Activity.

SMILES strings stand for the structures. Calls of active or inactive are those of the source. The calls are words filed in the database; no cut-off is given here.

Take `C[C@@H]1CC[C@@]2(OC1)O[C@H]1C[C@H]3[C@@H]4CC[C@H]5C[C@@H](O[C@@H]6O[C@H](CO)[C@H](O[C@@H]7O[C@H](CO)[C@@H](O)[C@H](O[C@@H]8OC[C@@H](O)[C@H](O)[C@H]8O)[C@H]7O[C@@H]7O[C@H](CO)[C@@H](O)[C@H](O)[C@H]7O)[C@H](O)[C@H]6O)CC[C@]5(C)[C@H]4CC[C@]3(C)[C@H]1[C@@H]2C` [DEGALACTOTIGONIN]: the Activity in the assay on MCF7 [1] is on record as 0.6%; in the assay on MCF7 [2], 50.5%; in the assay with MCF7 [3] it was 99.9%; with MCF7 [4], 28.5%; with MCF7 [5], 9%; with MCF7 [7] it was 27.5%. For the same compound, the Activity in the assay on MCF7 [8] was determined as 0.5%; in the assay on MCF7 [11] it was 3%; in the assay on MCF7 [13], 36.3%; with MCF7 [15], 43.8%; in the assay with MCF7 [16], 40.1%; with MCF7 [17], 0%. For the same compound, the viability at 8.27 µM in the assay with MCF7 [6] stood at 91%. The Ratio in the assay with MCF7 [9] worked out at 0.437. Besides, the result with MCF7 [10], in the assay on MCF7 [12] and in the assay with MCF7 [14] was Active.
For the compound `CC1(C)CC[C@]2(C(=O)O)CC[C@]3(C)C(=CC[C@@H]4[C@@]5(C)CC[C@H](O[C@@H]6O[C@H](C(=O)O)[C@@H](O)[C@H](O)[C@H]6O)C(C)(C)[C@@H]5CC[C@]43C)[C@@H]2C1`, the Activity came out at 99.9% in the assay on MCF7 [18]; 11.6% with MCF7 [19]; 0.2% with MCF7 [20]; 54.9% in the assay on MCF7 [21]; 0.8% in the assay with MCF7 [23]; 47.1% in the assay with MCF7 [25]. Besides, the Activity in the assay on MCF7 [27] was found to be 50.4%; in the assay on MCF7 [28], 14%; in the assay on MCF7 [31], 24.3%; in the assay on MCF7 [33] it was 29.7%; with MCF7 [34], 45.9%. Moreover, the result with MCF7 [22], in the assay with MCF7 [24], in the assay with MCF7 [29] and with MCF7 [32] was Active. Moreover, the viability at 11.33 µM in the assay on MCF7 [26] worked out at 87.5%; in the assay on MCF7 [36], 52%. The values for the Ratio in the assay on MCF7 [30] and with MCF7 [35] were 6.14 and 0.821, respectively.
